The target of data set [1] is T1, Alpha-2A adrenergic receptor (Homo sapiens, UniProt P08913). Also: in other assays of this panel Not Active means under 50% inhibition at 10 µM.
T1 sequence (P08913 whole entry): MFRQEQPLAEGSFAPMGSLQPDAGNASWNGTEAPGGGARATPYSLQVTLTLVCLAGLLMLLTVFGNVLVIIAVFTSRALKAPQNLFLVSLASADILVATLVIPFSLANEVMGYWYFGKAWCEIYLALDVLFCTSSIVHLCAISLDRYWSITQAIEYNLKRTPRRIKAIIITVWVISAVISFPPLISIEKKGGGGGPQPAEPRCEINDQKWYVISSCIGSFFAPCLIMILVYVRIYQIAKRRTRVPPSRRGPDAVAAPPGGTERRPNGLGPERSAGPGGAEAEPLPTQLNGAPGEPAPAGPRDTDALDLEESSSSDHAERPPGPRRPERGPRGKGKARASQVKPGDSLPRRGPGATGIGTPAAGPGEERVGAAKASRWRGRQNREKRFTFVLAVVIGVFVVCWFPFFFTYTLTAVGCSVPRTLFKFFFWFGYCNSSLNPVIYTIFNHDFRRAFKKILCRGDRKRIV
It counts as cell membranes, Sf9, Membrane. Particulars: sf9.

For data set [2], the target named is T2, Neuropeptide Y receptor type 2 (Homo sapiens, UniProt P49146). Also: in other assays of this panel Not Active means under 50% inhibition at 10 µM.
T2 sequence (P49146 whole entry): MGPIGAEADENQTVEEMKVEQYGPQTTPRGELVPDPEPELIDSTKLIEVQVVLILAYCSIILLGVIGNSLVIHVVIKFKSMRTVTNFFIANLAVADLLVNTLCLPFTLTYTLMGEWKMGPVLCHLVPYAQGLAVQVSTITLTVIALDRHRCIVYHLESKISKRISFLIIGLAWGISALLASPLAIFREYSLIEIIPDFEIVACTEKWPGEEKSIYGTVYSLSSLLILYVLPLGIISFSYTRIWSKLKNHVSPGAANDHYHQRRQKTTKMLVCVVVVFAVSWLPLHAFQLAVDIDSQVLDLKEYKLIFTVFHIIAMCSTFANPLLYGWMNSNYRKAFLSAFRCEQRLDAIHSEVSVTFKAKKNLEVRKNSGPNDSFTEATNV
In kind it is cell membranes, Membrane. Particulars: kan-ts.

The target of data set [3] is T3, Angiotensin-converting enzyme (Oryctolagus cuniculus, UniProt P12822).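 Also: enzymatic inhibition of angiotensin-converting enzyme measured with FAPGG as the substrate; in other assays of this panel Not Active means under 50% inhibition at 10 µM.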
T3 sequence (P12822 whole entry): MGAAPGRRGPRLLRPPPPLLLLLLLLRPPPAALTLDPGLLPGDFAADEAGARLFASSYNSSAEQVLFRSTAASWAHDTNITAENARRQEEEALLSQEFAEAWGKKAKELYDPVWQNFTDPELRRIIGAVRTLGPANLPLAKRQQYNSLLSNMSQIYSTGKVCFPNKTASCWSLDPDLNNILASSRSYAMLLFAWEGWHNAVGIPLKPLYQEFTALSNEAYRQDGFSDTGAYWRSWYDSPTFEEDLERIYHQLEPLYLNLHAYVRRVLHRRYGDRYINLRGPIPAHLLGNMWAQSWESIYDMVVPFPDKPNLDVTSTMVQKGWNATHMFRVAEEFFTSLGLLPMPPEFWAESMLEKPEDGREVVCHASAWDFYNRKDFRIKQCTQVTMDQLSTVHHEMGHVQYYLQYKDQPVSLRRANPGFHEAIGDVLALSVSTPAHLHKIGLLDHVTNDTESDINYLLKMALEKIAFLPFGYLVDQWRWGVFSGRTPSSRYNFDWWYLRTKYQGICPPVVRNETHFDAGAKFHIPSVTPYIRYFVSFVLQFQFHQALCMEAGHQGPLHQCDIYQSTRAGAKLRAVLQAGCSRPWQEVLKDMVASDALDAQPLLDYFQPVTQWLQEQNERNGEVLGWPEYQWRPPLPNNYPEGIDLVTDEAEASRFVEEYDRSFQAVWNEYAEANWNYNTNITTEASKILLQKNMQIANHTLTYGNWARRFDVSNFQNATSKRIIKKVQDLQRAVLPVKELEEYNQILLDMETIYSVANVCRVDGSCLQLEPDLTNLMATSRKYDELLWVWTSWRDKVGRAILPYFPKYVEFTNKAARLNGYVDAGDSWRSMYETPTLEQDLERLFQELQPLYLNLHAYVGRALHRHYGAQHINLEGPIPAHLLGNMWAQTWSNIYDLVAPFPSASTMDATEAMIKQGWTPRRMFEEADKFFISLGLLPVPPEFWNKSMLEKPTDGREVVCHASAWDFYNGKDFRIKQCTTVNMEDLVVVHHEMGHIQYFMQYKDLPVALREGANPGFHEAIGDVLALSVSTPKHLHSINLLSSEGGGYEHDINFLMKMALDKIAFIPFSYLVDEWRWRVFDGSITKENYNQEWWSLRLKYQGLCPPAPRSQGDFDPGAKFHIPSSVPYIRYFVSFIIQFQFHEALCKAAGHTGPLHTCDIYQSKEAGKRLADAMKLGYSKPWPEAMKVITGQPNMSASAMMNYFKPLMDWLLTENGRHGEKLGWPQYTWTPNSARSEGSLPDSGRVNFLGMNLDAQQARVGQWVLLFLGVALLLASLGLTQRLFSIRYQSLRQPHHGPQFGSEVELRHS
In kind it is tissue-based, Lung.

Data set [4] has as its target Mitogen-activated protein kinase 14 (Homo sapiens, UniProt Q16539). Details: species or system Escherichia coli.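 Also: inhibition of p38alpha enzyme activity in a biochemical kinase assay, with myelin basic protein serving as substrate; in other assays of this panel Not Active means under 50% inhibition at 10 µM.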
The target in the next data set is Adenosine receptor A2a (Homo sapiens, UniProt P29274). The data set is described as follows: DRUGMATRIX: Adenosine A2A radioligand binding (ligand: […]). In kind it is cell membranes, HEK293, Membrane. Particulars: hek293; Not Active = under 50% inhibition at 10 µM.
Data set [5] concerns the target Voltage-gated inwardly rectifying potassium channel KCNH2 (Homo sapiens, UniProt Q12809). Particulars: hek293. Also: in other assays of this panel Not Active means under 50% inhibition at 10 µM.

Chain of Mitogen-activated protein kinase 14 (Q16539 whole entry): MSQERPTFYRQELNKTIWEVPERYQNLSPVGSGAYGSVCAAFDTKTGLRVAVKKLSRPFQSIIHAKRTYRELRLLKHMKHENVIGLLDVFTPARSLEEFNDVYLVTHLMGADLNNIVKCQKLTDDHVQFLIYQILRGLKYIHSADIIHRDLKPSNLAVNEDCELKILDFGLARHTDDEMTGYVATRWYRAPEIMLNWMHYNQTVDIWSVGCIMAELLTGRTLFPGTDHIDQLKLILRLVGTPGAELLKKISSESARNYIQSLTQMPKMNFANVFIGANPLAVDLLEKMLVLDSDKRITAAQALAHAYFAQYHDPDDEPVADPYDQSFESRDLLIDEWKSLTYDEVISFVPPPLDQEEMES
Chain of Adenosine receptor A2a (P29274 whole entry): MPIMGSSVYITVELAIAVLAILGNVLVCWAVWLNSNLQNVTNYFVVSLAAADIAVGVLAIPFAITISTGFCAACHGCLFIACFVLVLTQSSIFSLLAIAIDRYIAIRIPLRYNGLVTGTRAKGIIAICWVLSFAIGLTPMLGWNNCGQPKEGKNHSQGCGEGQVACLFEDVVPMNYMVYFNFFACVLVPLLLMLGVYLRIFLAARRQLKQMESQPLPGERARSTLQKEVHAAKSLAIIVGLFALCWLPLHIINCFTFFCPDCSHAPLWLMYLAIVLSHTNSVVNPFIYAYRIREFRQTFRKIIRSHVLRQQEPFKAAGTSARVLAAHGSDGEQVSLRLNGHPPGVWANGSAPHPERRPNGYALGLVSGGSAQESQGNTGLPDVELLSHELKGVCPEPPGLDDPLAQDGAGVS
Chain of Voltage-gated inwardly rectifying potassium channel KCNH2 (Q12809 whole entry): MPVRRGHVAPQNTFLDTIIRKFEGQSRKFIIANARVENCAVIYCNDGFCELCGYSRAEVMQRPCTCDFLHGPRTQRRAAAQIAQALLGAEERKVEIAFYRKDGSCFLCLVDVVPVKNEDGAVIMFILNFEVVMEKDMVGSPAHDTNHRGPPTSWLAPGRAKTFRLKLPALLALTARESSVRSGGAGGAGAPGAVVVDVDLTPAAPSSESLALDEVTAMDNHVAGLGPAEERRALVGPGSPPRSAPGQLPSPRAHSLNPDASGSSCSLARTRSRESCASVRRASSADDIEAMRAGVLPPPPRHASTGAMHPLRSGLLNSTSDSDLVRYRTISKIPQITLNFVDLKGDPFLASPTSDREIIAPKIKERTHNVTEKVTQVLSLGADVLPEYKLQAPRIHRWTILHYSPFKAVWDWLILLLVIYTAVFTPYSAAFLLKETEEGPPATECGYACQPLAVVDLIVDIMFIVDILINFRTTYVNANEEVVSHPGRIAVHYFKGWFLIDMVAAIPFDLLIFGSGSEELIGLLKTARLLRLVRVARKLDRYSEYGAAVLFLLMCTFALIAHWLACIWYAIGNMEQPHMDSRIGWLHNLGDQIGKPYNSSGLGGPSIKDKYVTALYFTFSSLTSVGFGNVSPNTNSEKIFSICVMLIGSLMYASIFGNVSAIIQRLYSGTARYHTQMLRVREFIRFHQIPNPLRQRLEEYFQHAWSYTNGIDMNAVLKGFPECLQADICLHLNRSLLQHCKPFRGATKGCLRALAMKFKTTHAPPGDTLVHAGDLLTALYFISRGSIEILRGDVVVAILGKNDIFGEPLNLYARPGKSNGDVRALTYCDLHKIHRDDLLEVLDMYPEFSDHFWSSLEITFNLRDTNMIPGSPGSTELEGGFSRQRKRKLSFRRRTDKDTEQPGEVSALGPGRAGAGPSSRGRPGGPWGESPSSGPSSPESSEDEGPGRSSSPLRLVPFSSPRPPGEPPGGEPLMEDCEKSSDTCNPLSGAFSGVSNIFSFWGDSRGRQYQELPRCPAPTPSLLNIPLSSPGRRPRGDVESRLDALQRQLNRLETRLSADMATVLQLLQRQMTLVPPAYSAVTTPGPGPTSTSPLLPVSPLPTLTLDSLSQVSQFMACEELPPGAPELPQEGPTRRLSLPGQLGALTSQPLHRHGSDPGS

For STANNOUS FLUORIDE, the IC50 result (in data set [1]; in data set [2]; in data set [3]; in data set [4]; on Adenosine receptor A2a; in data set [5]) was “Not Active” each time. Further, the Ki result (in data set [1]; in data set [2]; in data set [3]; in data set [4]; on Adenosine receptor A2a; in data set [5]) was “Not Active” each time.
Take THIMEROSAL: the IC50 (commonly the point on the concentration scale where inhibition reaches its midpoint) is 532 nM in data set [1] (read-out: IC50); “Not Active” in data set [2]; “Not Active” in data set [3]; “Not Active” in data set [4]; “Not Active” on Adenosine receptor A2a; “Not Active” in data set [5]. Also, the Ki (commonly a dissociation constant, usually derived from enzyme kinetics or from competition with a known ligand) was 200 nM in data set [1] (read-out: Ki); “Not Active” in data set [2]; “Not Active” in data set [3]; “Not Active” in data set [4]; “Not Active” on Adenosine receptor A2a; “Not Active” in data set [5].

The values are drawn from ChEMBL document CHEMBL1909046, “DrugMatrix in vitro pharmacology data”.
